# Assay results reported in US11325892B2, “Compounds and methods for treating cancer” (Mayo Foundation for Medical Education and Research, priority 2014, dated 2022).
# Tests used:
# Format in all cases: cell-based
# [1] = system: FTC cells; assay: Proliferative dose response of thyroid cells; conditions: 72H treatment
# Procedure: (§1) Cells were seeded at 5,000 cells/well in clear-bottom 96-well plates in triplicate in Maintenance Media. Drug treatment was applied at a concentration of 1:1000 in reduced serum (3%) Maintenance Media. After 72 hours, cells were washed with PBS, and stored at −80° C. prior to analysis using CyQuant® Proliferation Analysis Kit (Invitrogen) as per manufacturers' protocol for relative fluorescence units. Alternatively, cells were plated 2×10^5/well in 12-well plates (Midwest Scientific) in triplicate prior to drug treatment. After 120 hour treatment, cell number was established using a Coulter Particle Counter (Beckman). Or, cells were plated (0.5 or 1×10^5/well) in 24-well plates (Midwest Scientific), 3×. After 72 hour treatment, cell number established using Coulter Particle Counter (Beckman). Oleic acid-albumin (Sigma Aldrich) was added to media at 5 μM, and was applied adjuvant to drug treatment. Drug stocks were prepared in DMSO (Sigma) at 1000×. EC50 dosing per cell line was calculated using CalcuSyn® analytical software.
# (§2) The efficacy of pharmacologic inhibition of this enzyme on tumor cell proliferation after a 72H treatment was determined, using A939572-a commercially available small molecule SCD1 inhibitor (Xin Z, Zhao H, Serby M D, Liu B, Liu M, Szczepankiewicz B G, Nelson L T, Smith H T, Suhar T S, Janis R S, Cao N, Camp H S, Collins C A, Sham H L, Surowy T K, Liu G. Discovery of piperidine-aryl urea-based stearoyl-CoA desaturase 1 inhibitors. Bioorg Med Chem Lett. 2008; 18(15):4298-302). […] Despite conspicuous SCD1 expression in 4 of the 5 FTC cells tested, no response to A939572 was observed (FIG. 10D).
# [2] = system: NT or FA cells; assay: Proliferative dose response of thyroid cells; conditions: 72H treatment
# Procedure: as §1, §2
# [3] = system: PTC cells; assay: Proliferative dose response of thyroid cells; conditions: 72H treatment; 2/5 PTC cells at high doses
# Procedure: as §1, §2
# [4] = system: GADD45a, DDIT3, HERPUD1 transcripts in THJ29T, THJ16T, and KTC2; assay: QPCR of UPR markers in ATC cells; conditions: 10 μM, 24 hours; all cell lines; OA restored expression to control levels
# Description: RNA isolation, preparation of cDNA, and QPCR performed as previously described (Tun H W, Marlow L A, von Roemeling C A, Cooper S J, Kreinest P, Wu K, Luxon B A, Sinha M, Anastasiadis P Z, Copland J A. Pathway signature and cellular differentiation in clear cell renal cell carcinoma. PLoS One. 2010; 5(5):e10696). TaqMan®CDFAM™ dye-labeled probes: GAPDH(Hs99999905_ml), POLR2A(Hs00172187_ml), SCD/(Hs01682761_HSPA5(Hs99999174_ml), GADD45A(Hs00169255_ml), DD/T3(Hs01090850_ml), and HERPUD/(Hs01124269_ml). Fold-change comparisons between normal vs. tumor, and DMSO vs. drug treated samples calculated using the […] method (Schmittgen T D, Livak K J. Analyzing real-time PCR data by the comparative C(T) method. Nat Protoc. 2008; 3 (6): 1101-8).
# Exogenous application of MUFAs, such as oleic or palmitoleic acid, can rescue the proliferative defects generated by SCD1 inhibition as these are the primary products of SCD1 enzymatic activity (Roongta U V, Pabalan J G, Wang X, Ryseck R P, Fargnoli J, Henley B J, Yang W P, Zhu J, Madireddi M T, Lawrence R M, Wong T W, Rupnow B A. Cancer cell dependence on unsaturated fatty acids implicates stearoyl-CoA desaturase as a target for cancer therapy. Mol Cancer Res. 2011; 9(11):1551-61). THJ29T, THJ16T and KTC2 cells were treated with the EC50 dose of A939572 or MF-438 for 72H with or without 5 μM of oleic acid (OA). […]
# [5] = system: HK2, a transformed renal epithelial cell line; assay: High-throughput proliferative screen, non-cancerous cells
# Procedure: as §1
# In order to identify potential SCD1 inhibitors, a high-throughput proliferative-based screening method was used, with four ccRCC cell lines including A498, ACHN, Caki1, and Caki2. The SCD1 inhibitor MF-438 was included as a positive control. Known compounds ChemBL375265 (Liu G, Lynch J K, Freeman J, et al. Discovery of potent, selective, orally bioavailable stearoyl-CoA desaturase 1 inhibitors. Journal of medicinal chemistry. Jun. 28, 2007; 50(13): 3086-3100) (SetA.100) and SAR707 (Voss M D, Zoller G, Matter H, et al. Discovery and pharmacological characterization of SAR707 as novel and selective small molecule inhibitor of stearoyl-CoA desaturase (SCD1). European journal of pharmacology. May 5, 2013; 707(1-3): 140-146) (TC03.100) were included as single-blinded positive controls, and are indicated with an asterisk (*). […]
Compound,proliferative response [1],proliferative response [2],proliferative response [3],"transcription of UPR markers GADD45a, DDIT3, HERPUD1 [4]",reduction in cell proliferation [5]
CNC(=O)c1cccc(NC(=O)N2CCC(Oc3ccccc3Cl)CC2)c1 [A939572],no response,No response,minimal response,transcriptionally upregulated,
"Cc1nnc(-c2ccc(N3CCC(Oc4ccccc4C(F)(F)F)CC3)nn2)s1 [MF-438, 2-methyl-5-(6-(4-(2-(trifluoromethyl)phenoxy)piperidin-1-yl)pyridazin-3-yl)-1,3,4-thiadiazole]",,,,,approximately 20%
